# Measurements from ChEMBL document CHEMBL1201862, “PubChem BioAssay data set” (2004).
#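 Following 48 hours of exposure in 96-well plates, responses at five concentrations were used to interpolate endpoints linearly. The concentration for 50% growth inhibition is given as GI50.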 Activity calls are given as the source filed them. Rule as the data show it: active = GI50 up to about 1.1 µM and inactive = higher. Square brackets hold non-standard residues; d marks the D form. Peptide text beside a SMILES is read from it. * marks the point of attachment. Phe(4-NO2) = N[CH](Cc1ccc([N+](=O)[O-])cc1)C(=O)O; Boc = CC(C)(C)OC(=O)*
# Columns and labels:
# Experiment in all cases: DTP human tumour cell line panel, 48 h
# COLO 205 = tested on: COLO 205
# SK-OV-3 = tested on: SK-OV-3
# TK-10 = tested on: TK-10
# SNB-75 = tested on: SNB-75
# HCC 2998 = tested on: HCC 2998
# SF-295 = tested on: SF-295
# BT-549 = tested on: BT-549
# U-251 = tested on: U-251
# UACC-62 = tested on: UACC-62
# OVCAR-5 = tested on: OVCAR-5
# SF-539 = tested on: SF-539
# NCI/ADR-RES = tested on: NCI/ADR-RES
# SK-MEL-2 = tested on: SK-MEL-2
# M14 = tested on: M14
# MDA-MB-231 = tested on: MDA-MB-231
# HOP-92 = tested on: HOP-92
# A549 = tested on: A549
# LOX IMVI = tested on: LOX IMVI
# NCI-H226 = tested on: NCI-H226
# RXF 393 = tested on: RXF 393
Compound,GI50 (COLO 205),GI50 (SK-OV-3),GI50 (TK-10),GI50 (SNB-75),GI50 (HCC 2998),GI50 (SF-295),GI50 (BT-549),GI50 (U-251),GI50 (UACC-62),GI50 (OVCAR-5),GI50 (SF-539),GI50 (NCI/ADR-RES),GI50 (SK-MEL-2),GI50 (M14),GI50 (MDA-MB-231),GI50 (HOP-92),GI50 (A549),GI50 (LOX IMVI),GI50 (NCI-H226),GI50 (RXF 393)
CCN1CCC(O)(c2ccc(Oc3ccc(Cl)cc3)cc2)C(C(=O)c2ccc(Oc3ccc(Cl)cc3)cc2)C1 (stereo unspecified),13.2 µM (inactive),23.3 µM (inactive),10.6 µM (inactive),12.9 µM (inactive),12.5 µM (inactive),12.4 µM (inactive),14.5 µM (inactive),> 10 µM (inactive),12.2 µM (inactive),13.5 µM (inactive),15.3 µM (inactive),17.3 µM (inactive),21.9 µM (inactive),14 µM (inactive),14.7 µM (inactive),7.16 µM (inactive),6.97 µM (inactive),3.78 µM (inactive),15 µM (inactive),26.2 µM (inactive)
Cc1cccc(/N=N/c2c(C)nn(C(=O)CC(=O)Nc3ccccc3)c2C)c1,> 100 µM (inactive),> 100 µM (inactive),> 100 µM (inactive),> 100 µM (inactive),> 100 µM (inactive),> 100 µM (inactive),> 100 µM (inactive),> 100 µM (inactive),> 100 µM (inactive),> 100 µM (inactive),> 100 µM (inactive),> 100 µM (inactive),> 100 µM (inactive),> 100 µM (inactive),> 100 µM (inactive),> 100 µM (inactive),> 100 µM (inactive),> 100 µM (inactive),> 100 µM (inactive),> 100 µM (inactive)
c1ccc(-c2nnc(SCc3c[nH]c4ccccc34)n2-c2ccccc2)cc1,> 100 µM (inactive),32.4 µM (inactive),22.2 µM (inactive),18.7 µM (inactive),27.4 µM (inactive),19.6 µM (inactive),17.3 µM (inactive),24.2 µM (inactive),21.5 µM (inactive),> 100 µM (inactive),18.9 µM (inactive),22.6 µM (inactive),29.2 µM (inactive),78.9 µM (inactive),29.4 µM (inactive),3.55 µM (inactive),34.4 µM (inactive),34.9 µM (inactive),22.7 µM (inactive),16.6 µM (inactive)
CCCCn1c(C)c(C(=O)OCC)s/c1=N/Nc1nc2ccccc2nc1-c1ccccc1,> 100 µM (inactive),53.3 µM (inactive),> 100 µM (inactive),> 100 µM (inactive),> 100 µM (inactive),43.3 µM (inactive),> 100 µM (inactive),43.6 µM (inactive),> 100 µM (inactive),> 100 µM (inactive),> 100 µM (inactive),> 100 µM (inactive),> 100 µM (inactive),> 100 µM (inactive),39.3 µM (inactive),44 µM (inactive),50.4 µM (inactive),> 100 µM (inactive),78.5 µM (inactive),> 100 µM (inactive)
O=S(=O)(Nc1nc2ccccc2nc1Nc1cccc2ccccc12)c1ccccc1,,19.9 µM (inactive),8.93 µM (inactive),15.5 µM (inactive),2.16 µM (inactive),6.17 µM (inactive),10.4 µM (inactive),5.52 µM (inactive),8.59 µM (inactive),> 100 µM (inactive),44.9 µM (inactive),13.6 µM (inactive),18.9 µM (inactive),62.4 µM (inactive),13.6 µM (inactive),2.7 µM (inactive),7.35 µM (inactive),> 100 µM (inactive),40.6 µM (inactive),17.5 µM (inactive)
O=[N+]([O-])C(=C1NCCN1)/C(Cl)=C(\Cl)Br,19.6 µM (inactive),> 100 µM (inactive),> 72.4 µM (inactive),27.2 µM (inactive),60 µM (inactive),> 100 µM (inactive),36.1 µM (inactive),49.3 µM (inactive),43.1 µM (inactive),> 100 µM (inactive),> 63 µM (inactive),> 63.1 µM (inactive),45.6 µM (inactive),38.3 µM (inactive),> 60.3 µM (inactive),34.4 µM (inactive),> 100 µM (inactive),15.7 µM (inactive),> 81.8 µM (inactive),14.1 µM (inactive)
OCCCCn1cc(Cn2ncc3c(SCc4ccccc4)ncnc32)nn1,31 µM (inactive),89.1 µM (inactive),> 100 µM (inactive),38.7 µM (inactive),56.4 µM (inactive),28.7 µM (inactive),34.7 µM (inactive),39.2 µM (inactive),44.5 µM (inactive),> 100 µM (inactive),43.2 µM (inactive),21.6 µM (inactive),76.7 µM (inactive),29.9 µM (inactive),75.7 µM (inactive),> 100 µM (inactive),42.7 µM (inactive),72.4 µM (inactive),93.5 µM (inactive),64.9 µM (inactive)
CC1OC(OC2C(O[C@H]3CC[C@@]4(C)C(=CC[C@H]5[C@@H]6C[C@@H]7O[C@]8(CC[C@@H](C)CO8)[C@@H](C)[C@@H]7[C@@]6(C)CC[C@@H]54)C3)OC(CO)C(O)C2OC2OC(CO)C(O)C(O)C2O)C(O)C(O)C1O (stereo partly specified),1.73 µM (inactive),1.8 µM (inactive),1.93 µM (inactive),2.04 µM (inactive),1.65 µM (inactive),2.14 µM (inactive),2.07 µM (inactive),1.89 µM (inactive),2.33 µM (inactive),13 µM (inactive),2.15 µM (inactive),2.24 µM (inactive),1.72 µM (inactive),2.35 µM (inactive),1.47 µM (inactive),1.79 µM (inactive),1.81 µM (inactive),2.38 µM (inactive),2 µM (inactive),2.17 µM (inactive)
COc1cccc2c1C(=O)c1c(O)c3c(c(O)c1C2=O)CC(O)(C(O)CO)CC3OC1CC2C(OC3COCC(C#N)N32)C(C)O1 (stereo unspecified),< 0.01 µM (active),< 0.01 µM (active),< 0.01 µM (active),< 0.01 µM (active),< 0.01 µM (active),< 0.01 µM (active),< 0.01 µM (active),< 0.01 µM (active),< 0.01 µM (active),< 0.01 µM (active),< 0.01 µM (active),< 0.01 µM (active),< 0.01 µM (active),< 0.01 µM (active),< 0.01 µM (active),< 0.01 µM (active),< 0.01 µM (active),< 0.01 µM (active),< 0.01 µM (active),< 0.01 µM (active)
COc1ccc(-c2cc(=O)c3c(O)cc(C)cc3o2)cc1OC,> 100 µM (inactive),> 100 µM (inactive),> 100 µM (inactive),67.1 µM (inactive),79.6 µM (inactive),> 100 µM (inactive),> 100 µM (inactive),> 100 µM (inactive),> 100 µM (inactive),> 100 µM (inactive),> 100 µM (inactive),> 100 µM (inactive),> 100 µM (inactive),> 100 µM (inactive),> 100 µM (inactive),22.8 µM (inactive),> 100 µM (inactive),> 100 µM (inactive),> 100 µM (inactive),> 100 µM (inactive)
CCOC(=O)C(Cc1ccccc1)(Cc1ccc(O)cn1)NC(=O)c1ccccc1 (stereo unspecified),24.4 µM (inactive),30.6 µM (inactive),32.1 µM (inactive),21.6 µM (inactive),25.1 µM (inactive),27.3 µM (inactive),30.1 µM (inactive),21.7 µM (inactive),16.7 µM (inactive),27.3 µM (inactive),23.8 µM (inactive),26.4 µM (inactive),20.2 µM (inactive),17.9 µM (inactive),28.1 µM (inactive),18.5 µM (inactive),27.2 µM (inactive),19.8 µM (inactive),29.2 µM (inactive),23.8 µM (inactive)
COP(=O)(OC)OCN(C)CC/C=C(\C)CC/C=C(\C)CCC=C(C)C,16.9 µM (inactive),28.5 µM (inactive),10.3 µM (inactive),14.8 µM (inactive),11.6 µM (inactive),16.6 µM (inactive),16.4 µM (inactive),17.7 µM (inactive),,15.5 µM (inactive),15.7 µM (inactive),13 µM (inactive),14.9 µM (inactive),14.5 µM (inactive),20.2 µM (inactive),17.6 µM (inactive),16.9 µM (inactive),15.8 µM (inactive),15.4 µM (inactive),16.9 µM (inactive)
CNC(=O)CCC(NC(=O)OC(C)(C)C)C(=O)NC(Cc1ccc([N+](=O)[O-])cc1)C(=O)NCC(=O)NC (stereo unspecified) (Boc-Glu(NHMe)-[Phe(4-NO2)]-Gly-NHMe; configuration not given here),> 100 µM (inactive),> 100 µM (inactive),> 100 µM (inactive),> 100 µM (inactive),> 100 µM (inactive),> 100 µM (inactive),> 100 µM (inactive),> 100 µM (inactive),> 100 µM (inactive),> 100 µM (inactive),> 100 µM (inactive),> 100 µM (inactive),,> 100 µM (inactive),> 100 µM (inactive),> 100 µM (inactive),> 100 µM (inactive),> 100 µM (inactive),> 100 µM (inactive),> 100 µM (inactive)
NC(=O)NC(=O)c1cccc(NC(=O)CI)c1,< 0.01 µM (active),0.0607 µM (active),< 0.0146 µM (active),0.235 µM (active),0.228 µM (active),0.274 µM (active),0.0473 µM (active),0.0291 µM (active),< 0.0152 µM (active),0.151 µM (active),< 0.0229 µM (active),0.039 µM (active),0.0361 µM (active),,0.0622 µM (active),< 0.01 µM (active),0.805 µM (active),< 0.0132 µM (active),< 0.0367 µM (active),0.0513 µM (active)
